According to ChEMBL document CHEMBL1139522, “Methyl pyropheophorbide-a analogues: potential fluorescent probes for the peripheral-type benzodiazepine receptor. Effect of central metal in photosensitizing efficacy” (J Med Chem, 2005):

Key:
[1] = Displacement of [3H]PK11195 from peripheral benzodiazepine receptor
Mus musculus [2] = species on record: Mus musculus; test: In vitro photodynamic therapy efficacy (0.06 uM) in RIF tumor cells using MTT assay; expressed as light dose; assay type: functional
Mus musculus [3] = species on record: Mus musculus; test: In vitro photodynamic therapy efficacy (1.0 uM) in RIF tumor cells using MTT assay; expressed as light dose; assay type: functional

Row | SMILES | IC50 [1] [nM] | LD50 (Mus musculus [2]) [J/cm2] | LD50 (Mus musculus [3])
1 | O=C(Cc1c[nH]c2ccccc12)NCCCCCCNc1ccc([N+](=O)[O-])c2nonc12 | 320 |  | 
2 | CCCCCCOC(C)C1=C(C)c2cc3nc(c4c5[nH]c(cc6[nH]c(cc1n2)c(C)c6CC)c(C)c5C(=O)C4)[C@@H](CCC(=O)OC)[C@@H]3C (stereo partly drawn) | 17000 | 0.43 | 
3 | CCC(C)N(C)C(=O)c1cc2ccccc2c(-c2ccccc2Cl)n1 (stereo not drawn) [PK-11195] | 390 |  | 
4 | C=Cc1c(C)c2cc3nc(c4c5nc(cc6[nH]c(cc1[nH]2)c(C)c6CC)C(C)=C5C(=O)C4)[C@@H](CCC(=O)OC)[C@@H]3C | 1820 | >2 | Toxic
5 | C=Cc1c(C)c2[n]3c1=CC1=[N+]4C(=Cc5c(C)c6c7[n]5[Zn-2]34[N+]3=C(C=2)[C@@H](C)[C@H](CCC(=O)OC)C3=C7CC6=O)C(CC)=C1C (stereo partly drawn) | 2890 | >2 | 0.7 J/cm2
6 | C=Cc1c(C)c2cc3nc(c4c5nc(cc6[nH]c(cc1[nH]2)c(C)c6CC)C(C)=C5C(=O)C4)[C@@H](CCC(=O)NCCCCCCNc1ccc([N+](=O)[O-])c2nonc12)[C@@H]3C | 37200 | >2 | >2 J/cm2
